3 molecules from patent US11753634B2, “Method and apparatus for applying heat to living tissue” (NATIONAL TAIWAN UNIVERSITY, priority 2019, dated 2023) can be followed below.

Each structure is given as a SMILES string. Like-named read-outs stand apart in the source and are kept apart here.

The test system of data set [1] is human pancreatic cancer cells (PANC-1). The data set can be described thus: cells.
Source text: In addition, for the portion of the living tissue, the human pancreatic cancer cells (PANC-1) are used instead of the neural cells as an example for illustration. Furthermore, the living pancreatic cancer cells are also placed in the culture solution of petri dish in order to perform the heat treatment method of the present invention.
In addition, for the portion of the living tissue, the human pancreatic cancer cells (PANC-1) are used as an example for illustration. Furthermore, the living pancreatic cancer cells are also placed in the culture solution of petri dish in order to perform the heat treatment method of the present invention.
The control group refers to the comparison group without the heat treatment according to the method of the present invention.
Data set [2] deals with human neural cells (SH-SY5Y). The experiment in a line: cell viability of human neural cells (SH-SY5Y) with/without cyclic heat treatment. As to conditions: hydrogen peroxide processing.

For `O=C(/C=C/c1ccc(O)c(O)c1)O[C@@H]1C[C@](O)(C(=O)O)C[C@@H](O)[C@H]1O` [CGA, chlorogenic acid], the viability at 200 µM in data set [1] (PANC-1, read-out: cell viability, PANC-1, 200 μM CGA, ten times of heat treatment, 43.5° C. / approximately 36° C. (FIG. 10B)) amounted to 53%; in data set [1] (PANC-1, read-out: cell viability, PANC-1, 200 μM CGA, without the heat treatment (FIG. 10B)), 88%.

As to `Nc1ccn([C@@H]2O[C@H](CO)[C@@H](O)C2(F)F)c(=O)n1` [Gem, gemcitabine], the viability at 5 µM in data set [1] (PANC-1, read-out: cell viability, PANC-1, 5 μM Gem, ten times of heat treatment, 43.5° C. / approximately 36° C. (FIG. 11)) stood at 55%; in data set [1] (PANC-1, read-out: cell viability, PANC-1, 5 μM Gem, without the heat treatment (FIG. 11)) it was 90%.

In general, cell viability refers to a per cent measure of how many cells are alive, often set against a control. Read a low cell viability as more harm to the cells. Consider `OO` [hydrogen peroxide], for which the cell viability in data set [2] (control group without the heat treatment (FIG. 5A, 5B)) was 55%; in data set [2] (eight times of heat treatment, max 40.9° C. / min 39.4° C. (FIG. 5A)) it was 70%; in data set [2] (eight times of heat treatment, max 42.0° C. / min 40.3° C. (FIG. 5B)) it was 82%.
